Experimental data taken from patent EP0697214A1, “Liposomal cyclosporin pharmaceutical formulations” (VESTAR, INC., priority 1994, dated 1996).

Experiments:
[1] = system: sensitive L1210 murine leukemia cells; assay: Multiple drug resistance test, 3H-thymidine uptake; assay type: cell-based; settings: Mus musculus, daunorubicin alone, 24 hours, read-out: IC₅₀ in Sensitive Cells
Procedure: (§1) Multiple drug resistance (MDR) was tested in vitro using resistant and sensitive L1210 murine leukemia cells. Liposomal Cyclosporine was obtained as described in Example 13 (19:3:1 formulation HEPC:DMPG:Cyclosporine) except that a spray dried lipid powder was used and the unilamellar vesicles were formed through homogenization. Daunorubicin, Cyclosporine-CreL, and liposomal Cyclosporine were diluted in RPMI-1640. The final concentration of daunorubicin in each well was 0, 0.3, 1, 3, 10, 30, 100 or 1000 ng/ml. The final concentration of Cyclosporine-CreL in each well was 0, 10, 70, 300, 1,250, 5,000, 20,000, 80,000, 160,000, 310,000, 620,000, or 1,050,000 ng/ml. The final concentration of liposomal Cyclosporine in each well was 0, 10, 70, 300, 1,250, 5,000, 20,000, 80,000, 160,000, 310,000, 620,000, or 1,050,000 ng/ml. Fifty microliters of each daunorubicin concentration was added to one well of a flat bottom 96-well culture plate. Fifty microliters of the appropriate concentration of Cyclosporine-CreL or liposomal Cyclosporine were also added to each well. Each drug combination was tested in triplicate. […]
(§2) After 20 hours of incubation, the cells were pulsed with 0.5µCu of³H-Thymidine per well. […] The cells in each well were then harvested using a Skatron Harvester and counted in a beta liquid scintillation counter (LKB). The IC₅₀ was calculated using a linear regression treatment of the data.

[2] = system: resistant L1210 murine leukemia cells; assay: Multiple drug resistance test, 3H-thymidine uptake; assay type: cell-based; settings: Mus musculus, daunorubicin alone, 24 hours, read-out: IC₅₀ in Resistant Cells
Procedure: as §1, §2

With `COc1cccc2c1C(=O)c1c(O)c3c(c(O)c1C2=O)C[C@@](O)(C(C)=O)C[C@@H]3O[C@H]1C[C@H](N)[C@H](O)[C@H](C)O1` [Daunorubicin] the IC50 [1] was 0.47 µg/mL and the IC50 [2] was 0.722 µg/mL.
